Experimental data from ChEMBL document CHEMBL1157539, “Thousands of chemical starting points for antimalarial lead identification” (Nature, 2010).

Test system: Plasmodium falciparum
Experiment: GSK_TCMDC: Inhibition of Plasmodium falciparum 3D7 in whole erythrocytes, using parasite LDH activity as an index of growth.
Format: functional, organism-based
Details: Plasmodium falciparum, 3D7

SMILES | XC50 [nM]
CC1(C)CCCN(Cc2c(O)ccc3c(O)c(-c4nc5ccccc5s4)c(=N)oc23)C1 | 337
CN1CCC(N2CCN(c3ccc4c(=O)nc(CCc5cccc(F)c5F)n(CC(=O)N(C)Cc5ccc(-c6ccc(C(F)(F)F)cc6)cc5)c4n3)CC2)CC1 | 717
CCN(CC)CCN(Cc1ccc(-c2ccc(C(F)(F)F)cc2)cc1)C(=O)Cn1c(SCc2ccc(F)c(F)c2F)nc(=O)c2c1CCC2 | 1020
CCc1nc(N)nc(N)c1-c1ccccc1 | 1180
Oc1cc(NCc2ccccc2NCc2ccc(Cl)c(Cl)c2)nc2ccccc12 | 842
CCN(CC)c1ccc(C(=O)Cn2ccc(=N)cc2)cc1 | 998
CCCN(CCC)C(=O)c1cc(-c2cccc(C)c2)nc2ccccc12 | 1060
Oc1ccc(CCNc2nc(NCCCOc3ccccc3-c3ccc(F)cc3)nc(N3CCNCC3)n2)cc1 | 1080
O=C(Nc1ccccc1)N(Cc1cccc(-c2cccc(CNCc3ccc4c(c3)OCO4)c2)c1)C1CCN(Cc2ccccc2)CC1 | 281
O=C(N[C@H]1CCN(Cc2ccc(OCCCN3CCCCC3)cc2)C1)c1ccc2ccccc2c1 | 764
Cc1cc(-c2nc3cc(C(=N)N)ccc3[nH]2)c(C)cc1-c1nc2cc(C(=N)N)ccc2[nH]1 | 397
O=c1sn(-c2csc3ccccc23)c2ccccc12 | 339
COCCNCC(O)Cn1c2ccc(Cl)cc2c2cc(Cl)ccc21 (stereo not given) | 52
Cc1cccc2nc(-c3ccc(-c4cccc(CN5CCN(c6ccncc6)CC5)c4)cc3)[nH]c12 | 117
CC(C)(C)c1nn(-c2ccccc2)c2[nH]c(=O)c(CNCc3ccc4c(c3)OCO4)cc12 | 1050
COCCN(C)CCCOc1cc2c(cc1OC)ncn2-c1cc(OCc2ccccc2C(F)(F)F)c(C(N)=O)s1 | 710
CCCc1ccc(-c2csc(NC(=O)c3ccc([N+](=O)[O-])o3)n2)cc1 | 1210
CN(C)CCOc1ccc(-c2cc(-c3ccc(Cl)c(O)c3)c(-c3ccncc3)o2)cc1 | 1450
O=C(/C=C/c1ccc(Cl)c(Cl)c1)NCCCCCN1CCC(NC(=O)Nc2cccc(Cl)c2F)CC1 | 378
Cn1cncc1-c1cc2c(Nc3ccc(OCc4ccccc4)cc3)ncnc2cn1 | 268
CC(c1cccc(Nc2nccc(-c3c(-c4cccc(NC(=O)c5c(F)cccc5F)c4)nn4ccccc34)n2)c1)S(C)(=O)=O (stereo not given) | 57.5
Cc1nn(C)cc1C(C)Nc1nncc(-c2ccc(C(F)(F)F)cc2)n1 (stereo not given) | 246
COc1ccc2nccc([C@@H](O)CN3CCC(NCc4cc5c(Cl)cc(Cl)cc5[nH]4)CC3)c2c1 | 58.5
Cc1[nH]c2ccc(-c3ccc(N(C)C)cc3)cc2c(=O)c1Cl | 720

SMILES | XC50 [nM]
Cc1noc(C)c1-c1cccc(CNCc2cccc(-c3cccc(-c4nc5cccc(C)c5[nH]4)c3)c2)c1 | 370
COc1cc2c(cc1S(=O)(=O)c1ccc(NC(=O)c3cccc(C(F)(F)F)c3)cc1)CCN(C)CC2 | 1380
COc1ccc2nc3cc(Cl)ccc3c(NCCc3ccccc3)c2c1 | 950
O=c1[nH]nc(-c2ccc(N3CCCC3)c([N+](=O)[O-])c2)c2ccccc12 | 631
CCN1CCN(CCCNc2c3ccccc3nc3ccccc23)CC1 | 798
Cc1cc(N)c2cc(NC(=O)/C=C/c3ccc([N+](=O)[O-])cc3)ccc2n1 | 669
Cc1cccc(C(=O)Nc2ccnc(N3CCC(N(C)Cc4ccccc4)CC3)c2)c1 | 962
CC(C)(C)c1ccc(/C=C/C(=O)NCCCCCN2CCC(c3c[nH]c4ccccc34)CC2)cc1 | 1090
COc1ccc(CNC2Cc3ccccc3C2)cc1-c1cccc(S(=O)(=O)NCCN2CCCC2)c1 | 760
O=C(/C=C/c1ccc(Cl)c(Cl)c1)NCCCCCN1CCC(NC(=O)Nc2ccc(OC(F)F)cc2)CC1 | 754
Cc1cccc2nc(-c3ccc(-c4ccc(CNCCNC(=O)c5ccnn5C)cc4)s3)[nH]c12 | 308
CC(C)COc1ccc(Cl)cc1Cc1nc(-c2nc3ccc(CN(C)C)cc3[nH]2)co1 | 711
Oc1ccc2[nH]c(-c3cccs3)nc2c1CN1CCC(O)(c2ccccc2)CC1 | 782
CCOC(=O)c1ccc(NC(=O)Nc2ccc(-c3cccc(-c4nc5cc(F)ccc5[nH]4)c3)cc2)cc1 | 122
CCCCCN1CCCN(Cc2cccc(NC(=O)c3cc4ccccc4s3)c2)CC1 | 594
C#CCNCc1ccc(-c2ccc(-c3nc4cc(C(F)(F)F)ccc4[nH]3)s2)cc1 | 744
COc1ccc(-c2cc(C(=O)N[C@@H](CC3CCCCC3)C(=O)NCCN3CCCCC3)ccc2O)cc1 | 950
CC1CN(c2cnn(Cc3ccc(NC(=O)Nc4ccc(-c5ccccc5)cc4)cc3)c(=O)c2Cl)CC(C)N1 (stereo not given) | 367
O=C(Nc1ccc(CN2CCN(S(=O)(=O)c3cccc(Cl)c3)CC2)cc1)c1cccs1 | 1080
CN1CCN(CCCN(Cc2ccc(-c3ccc(CNCc4ccc5c(c4)OCO5)cc3)cc2)C(=O)CCC2CCCC2)CC1 | 952
Nc1nc(N)c2cc(N(Cc3ccccc3)Cc3ccccc3)ccc2n1 | 612
O=C(C=Cc1cn(-c2ccccc2)nc1-c1ccccc1)N1CCN(c2ccncc2)CC1 | 965
COc1ccc(NC(=O)c2cccc(Br)c2)cc1N1CCN(CCCCCCCN2CCN(c3cc(NC(=O)c4cccc(Br)c4)ccc3OC)CC2)CC1 | 184
CCOc1cc(C(=O)Nc2ccc3nc(N4CCN(C)CC4)cc(C)c3c2)cc(OCC)c1OCC | 847

SMILES | XC50 [nM]
O=C(Nc1cccc(Oc2ccccc2)c1)N[C@H]1CCN(Cc2ccc(OCCCN3CCCCC3)cc2)C1 | 724
COc1ccc(CNC(=O)c2cnc3c(O)cccc3c2Nc2cccc(NC(=O)c3ccc(Cl)c([N+](=O)[O-])c3)c2)cc1 | 945
CCCCNCc1ccc(-c2nc(CN(Cc3ccc(Cl)c(Cl)c3)S(=O)(=O)c3ccc(NC(C)=O)cc3)cs2)cc1 | 1030
CN(C)c1ccc(C=Cc2nc(=O)c3ccccc3o2)cc1 | 44.6
CC[C@H](C)CNC(=O)c1cncc(-c2cccc(CN3CCC(N4CCCC4)CC3)c2)c1 | 1170
CC(C)c1sc(N2CCN(C)CC2)nc1C(=O)Nc1cccc2c1CCCC2 | 1280
Cc1cc(N[C@@H](Cc2ccccc2)C(=O)NCc2cccc(F)c2)nc(NCCOc2ccccc2)n1 | 786
CCOC(=O)c1ccc(CC(C)NCC(O)c2cccc(C(F)(F)F)c2)cc1 (stereo not given) | 216
CC(C)CNCc1cccc(-c2ccc(CN(CCCN3CCN(C)CC3)C(=O)CCC3CCCC3)cc2)c1 | 877
CC(C)c1cccc(C(NC(=O)[C@H]2Cc3ccccc3CN2C(=O)c2cccc(N3CCOCC3)c2)C2CCCC2)c1 (stereo not given in full) | 723
CC(=O)N1N=C(c2ccc(F)cc2)Sc2c1nc(-c1ccccc1)n2C(C)=O | 651
COc1ccc(NC(=O)[C@H](Cc2ccccc2)Nc2cc(C)nc(NCC3CCCCC3)n2)cc1 | 678
c1ccc2[nH]c(-c3ccc(-c4ccc(CNCCc5ccncc5)cc4)s3)nc2c1 | 158
CC(=O)c1nccc(C)c1N | 929
Cc1cccc(OCC(=O)Nc2cccc(NC(=O)COc3cccc(C)c3)n2)c1 | 671
CC(Cc1ccc([N+](=O)[O-])cc1)NCC(O)c1cccc(C(F)(F)F)c1 (stereo not given) | 898
COc1cc2c(cc1OCCN1CCC(N3CCCCC3)CC1)N(C(=O)/C=C/c1ccccc1Cl)CC2 | 280
CN(C)CCC(O)(c1ccc(Br)cc1)c1cccnc1 (stereo not given) | 831
Cc1cc(N[C@@H](Cc2ccccc2)C(=O)NCCc2ccccc2)nc(NCCc2ccccc2)n1 | 850
Nc1cccc(CNCc2ccc(-c3ccc(-c4nc5ccccc5[nH]4)s3)cc2)c1 | 574
O=C(C=Cc1ccc(Cl)c(Cl)c1)NCCCCCN1CCC(CCCNC(=O)c2ccc3c(c2)OCO3)CC1 | 149
Cc1cccc2nc(-c3ccc(-c4cccc(NC(=O)c5cncn5C)c4)cc3)[nH]c12 | 861
N#Cc1cccc(NC(=O)NC2CCN(CCCCCNC(=O)/C=C/c3ccc(Cl)c(Cl)c3)CC2)c1 | 707
Cc1cc(NC2CCN(CC3CCCCC3)C2)nc(Nc2ccc(Br)cc2)n1 (stereo not given) | 566

SMILES | XC50 [nM]
COc1cc(NC(=O)c2cc3c(C)nn(-c4cccc(C(F)(F)F)c4)c3s2)cc(OC)c1OC | 801
Cc1cc(NCCC(=O)Nc2ccccc2)nc(NCC2CCCCC2)n1 | 841
CCC(C)OC(=O)C1=C(C)NC2=C(C(=O)CC(c3ccc(OC)c(OC)c3)C2)C1c1ccc(C)o1 (stereo not given) | 899
CC(=O)Nc1ccc2[nH]cc(C3CCN(CC4CCN(C(=O)/C=C/c5ccc(Cl)c(Cl)c5)CC4)CC3)c2c1 | 723
Oc1ccc(CCNCc2ccc(OCc3ccccc3)c(OCc3ccccc3)c2)cc1 | 1510
Cc1cc(-c2cnc(N)c(-c3ccc(N4CCN(C)CC4)cc3)c2)cc(C)c1O | 1170
CCOc1cc(NC(=O)Nc2ccnc3ccccc23)cc(OC)c1 | 866
O=C(/C=C/c1ccc(Cl)cc1Cl)NC1CCC(CN2CCC(c3c[nH]c4ccccc34)CC2)CC1 (stereo not given) | 798
Cc1[nH]c(C)c(-c2ccc(CCc3ccc(F)cc3F)cc2)c(=O)c1Br | 5.29
COc1ccc2ncc(C#N)c(CCN3CCC(NCc4ccc5c(n4)NC(=O)CS5)CC3)c2n1 | 836
O=C(NC1CCCCN(Cc2ccccc2O)C1)c1cc(F)cc(F)c1 (stereo not given) | 1170
CN(C)CCCNCc1ccc(-c2ccc(CNCCc3ccccc3)cc2)cc1 | 994
COc1cc2ncnc(Nc3ccc(OCc4ccccc4)c(OCc4ccccc4)c3)c2cc1OC | 738
O=C(/C=C/c1ccc(Cl)c(Cl)c1)NCCCCCN1CCCN(C(=S)Nc2ccc(Cl)c(Cl)c2)CC1 | 869
CCCCCCn1c(Sc2ccc(C#N)c([N+](=O)[O-])c2)nnc1-c1cccc(Cl)c1 | 609
O=C(Cc1ccc(-n2cnnn2)cc1)N(Cc1cncn1Cc1cccc(C(F)(F)F)c1)CC1CC1 | 962
CC(=O)N[C@@H]1c2cc(C(C)=O)ccc2OC(C)(C)[C@@H]1O | 983
CCOC(=O)c1ccc(NC(=O)Nc2ccc(-c3cccc(-c4nc5cccc(C)c5[nH]4)c3)cc2)cc1 | 145
COc1ccc(NC(=O)[C@H](CC(C)C)Nc2cc(C)nc(NCCc3cccs3)n2)cc1 | 964
CCCCOc1ccc(/C=C/c2ccc(-c3c(C)[nH]c(C)c(Cl)c3=O)s2)cc1 | 395
CCOC(=O)c1ccc(NC(=O)Nc2ccc(-c3cccc(-c4nc5ccccc5[nH]4)c3)cc2)cc1 | 145
O=C(Nc1ccc(-c2ccc(-c3nc4ccccc4[nH]3)s2)cc1)Nc1ccsc1 | 279
C=CCn1c(Sc2ccc(C#N)c([N+](=O)[O-])c2)nnc1-c1cc(OC)cc(OC)c1 | 436
